Literature values as cited in publication PMC9337769 (Science Advances, 2022).

How the values were obtained:
PKA-C [1] = conditions: substrate binding cooperativity of ligand-bound PKA-C
PKA-C [2] = conditions: inhibition of PKA-C; literature value

| Ki (PKA-C [2]) | SMILES | K-type cooperativity (in words) (PKA-C [1]) |
| --- | --- | --- |
| – | O=S(=O)(NCCNCC=Cc1ccc(Br)cc1)c1cccc2cnccc12 [H89, N-[2-(p-bromocinnamylamino)ethyl]-5-isoquinoline sulfonamide] | negative K-type cooperativity |
| – | Nc1ncnc2c1ncn2[C@@H]1O[C@H](COP(=O)(O)OP(=O)(O)CP(=O)(O)O)[C@@H](O)[C@H]1O [adenosine 5′-(β,γ-methylene) triphosphate] | lacks K-type cooperativity |
| ~4 nM | O=C(N[C@@H]1CNCCC[C@H]1OC(=O)c1cc(O)c(C(=O)c2c(O)cccc2C(=O)O)c(O)c1)c1ccc(O)cc1 [balanol] | – |
